Measurements as given in paper PMC6256112, “Cannabinoid Receptor 2 Signalling Bias Elicited by 2,4,6-Trisubstituted 1,3,5-Triazines” (Frontiers in Pharmacology, 2018).
Values after ≈ are worked out from the molar mass of the structure shown. Where two headings read alike, the source gives them in different places. Marks after values point to notes of the source that are not given here.

Key:
[1] = biological target: T1, hCB2 (Homo sapiens, UniProt P34972); assay: Radioligand competition binding with [3H]-CP 55,940 on hCB2-expressing HEK membranes; details: for inhibition at 10 µM: 1 h, read-out: CB2 binding extent at 10 μM (%) (±SEM)
T1 construct: expressed in transfected cells; host or cells: HEK Flp-in

[2] = biological target: T2, hCB1 (Homo sapiens, UniProt P21554); assay: Radioligand competition binding screen with [3H]-CP 55,940 on hCB1-expressing HEK membranes; details: for CB2 selectivity over CB1 (in words): from CB1 binding at 10 μM versus CB2 affinity; for CB1 binding extent at 10 μM (%) (±SEM): 10 μM compound, displacement of 0.75 nM [3H]-CP 55,940
T2 construct: expressed in transfected cells; host or cells: HEK (membranes)

[3] = biological target: T1, hCB2; assay: hCB2 internalisation assay (immunocytochemistry of surface receptor), HEK Flp-in hCB2 cells; type: cell-based; parameters: Emax: dose or concentration left out as unconfirmed; details: for logR [log(τ/KA)] (±SEM) Internalisation: operational model transduction ratio
[4] = biological target: T1, hCB2; assay: Real-time CAMYEL BRET cAMP assay, forskolin-stimulated HEK Flp-in hCB2 cells; type: cell-based; details: for cAMP (5 min) Emax (±SEM): change relative to forskolin alone (100%), vehicle 0%, 10 and 14 approximate; for logR [log(τ/KA)] (±SEM) cAMP: operational model transduction ratio; for Emax: read-out: cAMP (5 min) Emax (±SEM)
Experimental: Cellular cAMP levels were measured using a real-time BRET biosensor (CAMYEL) as previously described ([Cawston et al., 2013]). In brief, cells were seeded in 10 cm dishes one day prior to transfection. The medium was then replaced and cells transfected with 5 μg of pcDNA3L-His-CAMYEL (ATCC, Manassas, VA, United States) using linear PEI (MW 25 kDa; Polysciences, Warrington, PA, United States) with a DNA:PEI ratio of 1:6. Approximately 24 h after transfection, cells were trypsinised and re-plated in poly-D-lysine treated white 96-well plates (Corning), at a density of 5–6 × 10^4 cells per well. For experiments involving pertussis toxin (PTX; Sigma-Aldrich) pre-treatment, cells were seeded in half the usual volume of medium, and then ∼5 h later, 2× concentrated PTX or vehicle (50% glycerol, […] Tris–HCl pH 7.5, 10 mM glycine, 500 mM NaCl) were prepared in medium and added to the existing plating medium (giving rise to a final PTX concentration of 100 ng mL^-1). Approximately 24 h after plating (or 16–20 h after applying PTX/vehicle in experiments involving PTX treatment), cells were washed once with Hank’s Balanced Salt Solution (HBSS, Thermo Fisher Scientific, catalogue #14025-134), and then equilibrated for 30 min in HBSS supplemented with 1 mg mL^-1 BSA. Coelenterazine h (final concentration 5 μM; NanoLight Technologies, Pinetop, AZ, United States) was added to each well and incubated for 5 min. Forskolin was added (final concentration 5 μM) and incubated for 6 min (allowing enough time for the induced cAMP increase to plateau), prior to vehicle/drug addition. All drugs and reagents were prepared in HBSS supplemented with 1 mg mL^-1 BSA. SR 144528 was a generous gift from Roche (Basel, Switzerland).
Assays were carried out in technical duplicate. Emissions were detected at 460 nm (Rluc) and 535 nm (YFP) with either a LUMIstar® Omega luminometer (BMG Labtech, Ortenberg, Germany) or CLARIOstar® (BMG Labtech). BRET ratios (535 nm emissions/460 nm emissions, where an increase in ratio corresponds to a decrease in cAMP) were normalised to pre-forskolin reads (i.e., with coelenterazine h present) to remove any variability present prior to addition of forskolin and drug/vehicle. A Lowess curve (GraphPad Prism) was fitted to individual technical replicates within an assay so that cAMP signalling data could be extrapolated from any time point as opposed to only those that were empirically measured (typically every 30–60 s). Data were normalised to matched vehicle (0%) and forskolin (100%) treatments, allowing compilation of data from independent experiments.

[5] = system: HEK Flp-in wt cells; assay: CAMYEL cAMP assay in HEK Flp-in wt cells (non-hCB2-mediated effects); type: cell-based, human; details: HEK Flp-in wt
[6] = biological target: T1, hCB2; assay: pERK AlphaLISA assay, HEK Flp-in hCB2 cells; type: cell-based; details: for logR [log(τ/KA)] (±SEM) pERK: operational model transduction ratio; for Time of maximal pERK response: time course experiment; for Behaviour in pERK pathway (in words): 4 min
[7] = biological target: T1, hCB2; assay: Comparison of efficacy/potency and operational-model bias analysis between hCB2 pathways, reference CP 55,940; type: cell-based; details: for Internalisation – pERK Bias factor / cAMP – internalisation Bias factor / cAMP – pERK Bias factor: 10^ΔΔlogR; for Internalisation – pERK Bias factor / cAMP – internalisation Bias factor / cAMP – pERK Bias factor / Between-pathway signalling bias (in words): relative to CP 55,940; for Internalisation – pERK ΔΔlogR (±SEM) / cAMP – internalisation ΔΔlogR (±SEM) / cAMP – pERK ΔΔlogR (±SEM): relative to reference ligand CP 55,940
[8] = system: CB2; parameters: method as in Yrjölä et al., 2015; details: ref Yrjölä et al., 2015; cited from earlier work
[9] = physchem; type: physicochemical; details: organic solvent or mixture
Source text: The piperazine-containing 1,3,5-triazines 1 and 7, assembled following literature protocols (compound “26a” in [Yrjölä et al., 2013]; compound “8” in [Yrjölä et al., 2015], respectively), were alkylated with various alkyl bromide linkers containing a Boc-protected amine at the terminus to give 3, 4, 8, 9 and 10 (Schemes 1, 2). These were then Boc-deprotected using acidic conditions to give primary amines 5, 6, 11, 12, and 13. One example of an acetylated linker (14) was also synthesised. Thirteen compounds were biologically tested (Table 1); five compounds had been reported previously (1, 2, 7, 15, 16) ([Yrjölä et al., 2013], [2015]), and the remainder were novel (5, 6, 9–14). […] 7 was therefore assayed in a higher final DMSO content (1%) than the other compounds (0.1%). Both vehicle concentrations were controlled for in all assays (negative/vehicle and positive controls).

[10] = 10 μM compound, displacement of 0.5 nM [3H]-CP 55,940
[11] = heterologous competition vs [3H]-CP 55,940, read-out: CB2 pKi (±SEM) (converted)
[12] = 5 min post-drug, 5 μM forskolin, 10 and 14 approximate (non-hCB2-mediated effects), read-out: cAMP (5 min) pEC50 (±SEM) (converted)
[13] = 5 min post-drug, 5 μM forskolin
[14] = 4 min stimulation, 14 approximate (low potency), read-out: pERK (4 min) pEC50 (±SEM) (converted)
[15] = read-out: Internalisation (1 h) Emax (±SEM)

T2 sequence (P21554 whole entry): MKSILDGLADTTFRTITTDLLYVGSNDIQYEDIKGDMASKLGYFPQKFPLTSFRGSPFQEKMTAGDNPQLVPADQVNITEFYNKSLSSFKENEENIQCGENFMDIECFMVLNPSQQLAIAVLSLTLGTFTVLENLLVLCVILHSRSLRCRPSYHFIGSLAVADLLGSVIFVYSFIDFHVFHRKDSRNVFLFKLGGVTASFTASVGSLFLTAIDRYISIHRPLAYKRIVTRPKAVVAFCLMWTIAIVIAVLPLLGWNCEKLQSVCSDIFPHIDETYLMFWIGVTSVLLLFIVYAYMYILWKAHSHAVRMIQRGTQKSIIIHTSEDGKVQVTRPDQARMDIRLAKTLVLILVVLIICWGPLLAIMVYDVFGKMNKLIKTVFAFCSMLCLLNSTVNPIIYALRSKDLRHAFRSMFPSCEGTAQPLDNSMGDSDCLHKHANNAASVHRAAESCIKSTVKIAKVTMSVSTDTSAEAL
T1 sequence (P34972 whole entry): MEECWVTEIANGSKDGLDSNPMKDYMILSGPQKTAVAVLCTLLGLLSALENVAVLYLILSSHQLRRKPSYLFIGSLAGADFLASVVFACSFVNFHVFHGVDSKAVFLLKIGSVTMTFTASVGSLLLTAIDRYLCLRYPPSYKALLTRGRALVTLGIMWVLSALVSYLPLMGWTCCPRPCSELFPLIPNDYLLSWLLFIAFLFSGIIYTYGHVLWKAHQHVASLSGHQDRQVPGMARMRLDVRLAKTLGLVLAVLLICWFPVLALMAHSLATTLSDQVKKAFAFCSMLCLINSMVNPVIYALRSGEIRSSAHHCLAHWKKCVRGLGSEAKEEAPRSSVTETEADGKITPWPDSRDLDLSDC

| SMILES | inhibition at 10 µM [1, 10] [%] | Ki [1, 11] [nM] | CB2 selectivity over CB1 (in words) [2] | EC50 ([3]; 1 h stimulation) [nM] | logR [log(τ/KA)] (±SEM) Internalisation [3] | EC50 [4, 12] [nM] | cAMP (5 min) Emax (±SEM) [4, 13] | logR [log(τ/KA)] (±SEM) cAMP [4] | Non-hCB2-mediated effects on cAMP (in words) [5] | EC50 [6, 14] [nM] | logR [log(τ/KA)] (±SEM) pERK [6] | Time of maximal pERK response [6] [min] | Internalisation – pERK Bias factor [7] | cAMP – internalisation Bias factor [7] | cAMP – pERK Bias factor [7] | Between-pathway signalling bias (in words) [7] | Internalisation – pERK ΔΔlogR (±SEM) [7] | cAMP – internalisation ΔΔlogR (±SEM) [7] | cAMP – pERK ΔΔlogR (±SEM) [7] | Functional GTPγS selectivity for CB2 versus CB1 [8] | other results |
| --- | --- | --- | --- | --- | --- | --- | --- | --- | --- | --- | --- | --- | --- | --- | --- | --- | --- | --- | --- | --- | --- |
| CCOc1nc(NC23CC4CC(CC(C4)C2)C3)nc(N2CCN(CCF)CC2)n1 [Compound 16, N-(adamantan-1-yl)-4-et hoxy-6-(4-(2-fluoroethyl)piperazin-1-yl)-1,3,5-triazin-2-amine] | 95.6 | 1.62 | somewhat CB2-selective | 1.2 | 8.90 (0.19) | 2.82 | –35.6 (2.2) % | 8.52 (0.19) | most pronounced effects | 12.3 | 7.84 (0.07) | 4 | 2.2 | 0.7 | 1.6 | did not demonstrate any indication of between-pathway bias | 0.35 (0.13) | –0.14 (0.22) | 0.21 (0.20) | 1000 to 10,000 fold | Behaviour in internalisation pathway (in words) ([3]; 1 h stimulation): significantly less efficacious; Efficacy relative to maximal efficacy measured across all compounds, all three pathways [7]: ~80%; Emax ([7]; read-out: Efficacy relative to maximal efficacy measured across all compounds, all three pathways, internalisation, cAMP and pERK): 75 to 80%; GTPγS activity, % of maximum measured activity [8]: ~70% |
| CCOc1nc(NC23CC4CC(CC(C4)C2)C3)nc(N2CCNCC2)n1 [Compound 7, N-(ad-amantan-1-yl)-4-ethoxy-6-(piperazin-1-yl)-1,3,5-triazi n-2-amine] | 85.6 | 417 | likely also CB2-selective | 45.7 | 7.42 (0.26) | 85.1 | –43.0 (3.0) % | 7.29 (0.26) | most pronounced effects | 1820 | 5.51 (0.05) | 4 | 15.4 | 1.3 | 20.3 | away from activation of pERK | 1.19 (0.16)*** | 0.12 (0.31) | 1.31 (0.27)*** |  | Reduction in hCB2 affinity compared to 15 ([1]; compared to methylpiperazinyl-15): ~100 fold; CB1 binding extent at 10 μM (%) (±SEM) [2]: 13.7 (4.1) %; Emax at 10 µM ([3]; read-out: Internalisation (1 h) Emax (±SEM), 1 h stimulation, change in surface hCB2 relative to vehicle-treated (100%), for 13 efficacy at 10 μM): -61.4%; Behaviour in pERK pathway (in words) [6]: weak partial agonists; solubility [9]: 1000 µM (≈ 358 µg/mL); GTPγS activity, % of maximum measured activity [8]: ~60% |
| CCCCCCC(C)(C)c1ccc([C@@H]2C[C@H](O)CC[C@H]2CCCO)c(O)c1 [CP 55,940, reference compound] |  |  |  |  | 8.76 (0.1) |  |  | 8.52 (0.02) | least pronounced non-hCB2 signalling profile |  | 8.05 (0.03) | 4 | 1.0 | 1.0 | 1.0 |  | –0.02 (0.11) | 0.01 (0.10) | 0.00 (0.04) |  | CB2 binding extent at 10 μM (%) (±SEM) [1, 10]: 100.0 (0.0) %; CB1 binding extent at 10 μM (%) (±SEM) [2]: 100.0 (0.0) %; Starting surface hCB2 internalised ([3]; 1 h stimulation): ~66%; Emax [3, 15]: -65.1%; cAMP potency lower than binding affinity ([4]; pEC50 versus pKd): ~0.4 log units; Emax [4]: -41.7%; pERK potency lower than that for cAMP [6]: approximately 0.5 log unit; pERK potency lower than affinity ([6]; EC50 versus Kd): ~10 fold |
| CCOc1nc(NC23CC4CC(CC(C4)C2)C3)nc(N2CCN(C)CC2)n1 [Compound 15, N-(Adamantan-1-yl)-4-ethoxy-6-(4-methylpiperazin-1-yl)-1,3,5-triazin-2-amine] |  |  | somewhat CB2-selective |  | 8.92 (0.09) |  |  | 8.12 (0.09) |  |  | 7.45 (0.10) | 4 | 5.7 | 0.3 | 1.6 | biased towards internalisation | 0.76 (0.15)* | –0.56 (0.15) | 0.20 (0.13) | 1000 to 10,000 fold | Ki [1]: 4.27 nM; inhibition at 10 µM [1]: 92.9%; EC50 [3]: 1.23 nM; Emax [3, 15]: -56.5%; EC50 [4]: 7.94 nM; Emax [4]: -39.6%; EC50 [6]: 35.5 nM; Behaviour in pERK pathway (in words) [6]: equivalent efficacies to CP 55,940; Emax ([6]; read-out: pERK (4 min) Emax (±SEM)): 9.96%; GTPγS functional behaviour (in words) [8]: full agonist |
